Patent publication US4341784A, “Naphthyridine derivatives” (priority 1979, dated 1982)
Converted amounts (≈) assume the structure as drawn. Like-named read-outs stand apart in the source and are kept apart here.

What was measured:
[1] = tested on: Staphylococcus aureus 209P JC-1; assay: In vitro antibacterial activity (MIC, agar dilution method); type: cell-based; conditions: read-out: minimum inhibitory concentration (MIC)
Description: (§1) The minimum inhibitory concentrations (MIC, μg/ml) of the following compounds in vitro were measured by the agar dilution method of [Chemotherapy, Vol. 22, No. 16, page 1126 (1974)].

[2] = tested on: Pseudomonas aeruginosa No. 12; assay: as above; type: cell-based
Description: as §1

[3] = tested on: Enterobacter cloacae P-2540; assay: as above; type: cell-based
Description: as §1

[4] = tested on: Klebsiella pneumoniae No. 13; assay: as above; type: cell-based
Description: as §1

[5] = tested on: Corynebacterium pyogenes C-21; assay: as above; type: cell-based
Description: as §1

Escherichia coli P-140a = assay: as above; type: cell-based; conditions: read-out: minimum inhibitory concentration (MIC)
Description: as §1

Escherichia coli P-5101 [6] = assay: as above; type: cell-based
Description: as §1

[7] = tested on: Staphylococcus aureus Smith; assay: as above; type: cell-based; conditions: read-out: minimum inhibitory concentration (MIC)
Description: as §1

[8] = tested on: Streptococcus faecalis P-2473; assay: as above; type: cell-based; conditions: Enterococcus faecalis, P2473, read-out: minimum inhibitory concentration (MIC)
Description: as §1

Proteus morganii Kono = assay: as above; type: cell-based; conditions: Morganella morganii, read-out: minimum inhibitory concentration (MIC)
Description: as §1

Proteus mirabilis P-2381 = assay: as above; type: cell-based
Description: as §1

[9] = tested on: Shigella flexneri 4a P-330; assay: as above; type: cell-based; conditions: 4AP330, read-out: minimum inhibitory concentration (MIC)
Description: as §1

[10] = tested on: Salmonella enteritidis No. 1891; assay: as above; type: cell-based; conditions: Salmonella enterica, read-out: minimum inhibitory concentration (MIC)
Description: as §1

[11] = tested on: Staphylococcus epidermidis No. 8; assay: as above; type: cell-based
Description: as §1

Shigella flexneri 2a = assay: as above; type: cell-based; conditions: read-out: minimum inhibitory concentration (MIC)
Description: as §1

[12] = tested on: Staphylococcus aureus No. 80; assay: as above; type: cell-based
Description: as §1

[13] = tested on: Escherichia coli NIHJ JC-2; assay: as above; type: cell-based
Description: as §1

[14] = tested on: Staphylococcus aureus No. 50774; assay: as above; type: cell-based
Description: as §1

[15] = tested on: Streptococcus pyogenes 65A; assay: as above; type: cell-based; conditions: read-out: minimum inhibitory concentration (MIC)
Description: as §1

[16] = tested on: Serratia marcescens IFO 3736; assay: as above; type: cell-based
Description: as §1

[17] = tested on: Salmonella typhimurium S-9; assay: as above; type: cell-based; conditions: Salmonella enterica, read-out: minimum inhibitory concentration (MIC)
Description: as §1

[18] = tested on: Pseudomonas aeruginosa Tsuchiijima; assay: as above; type: cell-based; conditions: read-out: minimum inhibitory concentration (MIC)
Description: as §1

Escherichia coli P-5101 [19] = assay: In vivo efficacy against systemic infections in mice (intraperitoneal infection); set-up: species or system male mice (ddY); conditions: P5101, 168 h, po, twice, about 5 minutes and 6 hours after intraperitoneal infection, observed 7 days
Description: (§2) Each of the solutions was orally administered to mice infected with each of test organisms under the conditions described below, and the medium effective doses (ED50) obtained are shown in Table II. Male mice (ddY) weighing about 20 g (3) Escherichia coli P-5101: Intraperitoneal infection with about 9×10^6 cells per mouse suspended in trypto-soy broth with 4% mucin. Twice, about 5 minutes and 6 hours after infection. |Escherichia coli P-5101 for 7 days | The numerals in the table show ED50 (mg/kg). ED50 values were | calculated in accordance with the BehrensKaerber method (Arch. Exp. Path. | Pharm., 162, 480 (1931)). | po: oral administration.

[20] = tested on: Pseudomonas aeruginosa No. 12; assay: as above; set-up: species or system male mice (ddY); conditions: NO.12, 168 h, po, twice, about 5 minutes and 6 hours after intraperitoneal infection, observed 7 days
Description: as §2, with “(4) Pseudomonas aeruginosa No. 12:” for “(3) Escherichia coli P-5101:”, “5×10^3” for “9×10^6”, “days |Pseudomonas aeruginosa No. 12” for “days”

[21] = Pseudomonas aeruginosa, NO.12, read-out: minimum inhibitory concentration (MIC)
[22] = Enterobacter cloacae, P2540, read-out: minimum inhibitory concentration (MIC)
[23] = Klebsiella pneumoniae, NO.13, read-out: minimum inhibitory concentration (MIC)
[24] = Corynebacterium pyogenes, C21, read-out: minimum inhibitory concentration (MIC)
[25] = P140A, Escherichia coli P-140a, agar dilution
[26] = Escherichia coli, P5101, read-out: minimum inhibitory concentration (MIC)
[27] = Staphylococcus epidermidis, NO.8, read-out: minimum inhibitory concentration (MIC)
[28] = Staphylococcus aureus, NO.80, read-out: minimum inhibitory concentration (MIC)
[29] = Escherichia coli, NIHJJC2, read-out: minimum inhibitory concentration (MIC)
[30] = Staphylococcus aureus, NO.50774, read-out: minimum inhibitory concentration (MIC)
[31] = Serratia marcescens, IFO3736, read-out: minimum inhibitory concentration (MIC)
[32] = Staphylococcus aureus 209P JC-1, agar dilution
[33] = C21, Corynebacterium pyogenes C-21, agar dilution, read-out: minimum inhibitory concentration (MIC)
[34] = P5101, Escherichia coli P-5101, agar dilution, read-out: minimum inhibitory concentration (MIC)
[35] = Staphylococcus aureus Smith, agar dilution
[36] = P2381, Proteus mirabilis P-2381, agar dilution, read-out: minimum inhibitory concentration (MIC)
[37] = Salmonella enteritidis No. 1891, agar dilution
[38] = Staphylococcus aureus No. 50774, agar dilution, read-out: minimum inhibitory concentration (MIC)
[39] = Salmonella typhimurium S-9, agar dilution
[40] = P2540, Enterobacter cloacae P-2540, agar dilution, read-out: minimum inhibitory concentration (MIC)
[41] = Klebsiella pneumoniae No. 13, agar dilution, read-out: minimum inhibitory concentration (MIC)
[42] = Proteus morganii Kono, agar dilution
[43] = Staphylococcus epidermidis No. 8, agar dilution, read-out: minimum inhibitory concentration (MIC)
[44] = Staphylococcus aureus No. 80, agar dilution, read-out: minimum inhibitory concentration (MIC)
[45] = NIHJJC2, Escherichia coli NIHJ JC-2, agar dilution, read-out: minimum inhibitory concentration (MIC)
[46] = IFO3736, Serratia marcescens IFO 3736, agar dilution, read-out: minimum inhibitory concentration (MIC)
[47] = Pseudomonas aeruginosa No. 12, agar dilution, read-out: minimum inhibitory concentration (MIC)
[48] = Streptococcus pyogenes 65A, agar dilution
[49] = Pseudomonas aeruginosa Tsuchiijima, agar dilution

Row | SMILES | MIC ([1]; Staphylococcus aureus, 209P) [µg/mL] | MIC [2, 21] [µg/mL] | MIC (Escherichia coli P-140a; [25]) [µg/mL] | MIC ([7]; Staphylococcus aureus) [µg/mL] | MIC [8] [µg/mL] | MIC [9] [µg/mL] | MIC [11, 27] [µg/mL] | MIC (Shigella flexneri 2a) [µg/mL] | MIC [12, 28] [µg/mL] | MIC [14, 30] [µg/mL] | MIC ([15]; Streptococcus pyogenes, 65A) [µg/mL] | MIC ([18]; Pseudomonas aeruginosa) [µg/mL] | MIC [5, 33] [µg/mL] | MIC (Escherichia coli P-5101 [6]; [34]) [µg/mL] | MIC (Proteus mirabilis P-2381; [36]) [µg/mL] | MIC [10, 37] [µg/mL] | MIC [17, 39] [µg/mL] | MIC [3, 40] [µg/mL] | MIC [4, 41] [µg/mL] | MIC (Proteus morganii Kono; [42]) [µg/mL] | other results
1 | CCn1cc(C(=O)O)c(=O)c2ccc(C)nc21 [Compound D, 1-Ethyl-1,4-dihydro-7-methyl-4-oxo-1,8-naphthyridine-3-carboxylic acid] | 100 (≈ 431 µM) | 200 (≈ 861 µM) | 1.56 (≈ 6.72 µM) | 25 (≈ 108 µM) | > 200 | 3.13 (≈ 13.5 µM) | 25 (≈ 108 µM) | 6.25 (≈ 26.9 µM) | 25 (≈ 108 µM) | 50 (≈ 215 µM) | > 200 | 200 (≈ 861 µM) | – | – | – | – | – | – | – | – | MIC [3, 22]: 6.25 µg/mL (≈ 26.9 µM); MIC [4, 23]: 12.5 µg/mL (≈ 53.8 µM); MIC [5, 24]: > 200 µg/mL; MIC (Escherichia coli P-5101 [6]; [26]): 3.13 µg/mL (≈ 13.5 µM); MIC (Proteus morganii Kono): 6.25 µg/mL (≈ 26.9 µM); MIC (Proteus mirabilis P-2381; Proteus mirabilis, P2381, read-out: minimum inhibitory concentration (MIC)): 6.25 µg/mL (≈ 26.9 µM); MIC ([10]; ENTERITIDIS): 3.13 µg/mL (≈ 13.5 µM); MIC [13, 29]: 12.5 µg/mL (≈ 53.8 µM); MIC [16, 31]: 6.25 µg/mL (≈ 26.9 µM); MIC ([17]; TYPHIMURIUM): 3.13 µg/mL (≈ 13.5 µM)
2 | CCn1cc(C(=O)O)c(=O)c2cc(F)c(N3CCCC3)nc21 [Compound C, 1-Ethyl-6-fluoro-1,4-dihydro-4-oxo-7-(1-pyrrolidinyl)-1,8-naphthyridine-3-carboxylic acid] | – | 3.13 (≈ 10.3 µM) | 0.78 (≈ 2.55 µM) | – | 6.25 (≈ 20.5 µM) | 3.13 (≈ 10.3 µM) | 0.39 (≈ 1.28 µM) | 1.56 (≈ 5.11 µM) | 0.2 (≈ 0.655 µM) | – | 3.13 (≈ 10.3 µM) | 3.13 (≈ 10.3 µM) | 0.78 (≈ 2.55 µM) | 0.78 (≈ 2.55 µM) | 6.56 (≈ 21.5 µM) | 0.39 (≈ 1.28 µM) | 0.78 (≈ 2.55 µM) | – | – | – | MIC [1, 32]: 0.39 µg/mL (≈ 1.28 µM); MIC [3, 22]: 1.56 µg/mL (≈ 5.11 µM); MIC [4, 23]: 1.56 µg/mL (≈ 5.11 µM); MIC [7, 35]: 0.39 µg/mL (≈ 1.28 µM); MIC (Proteus morganii Kono): 1.56 µg/mL (≈ 5.11 µM); MIC [13, 29]: 1.56 µg/mL (≈ 5.11 µM); MIC [14, 38]: 0.2 µg/mL (≈ 0.655 µM); MIC [16, 31]: 3.13 µg/mL (≈ 10.3 µM); ED50 (Escherichia coli P-5101 [19]): > 50 mg/kg; ED50 [20]: > 100 mg/kg
3 | CCn1cc(C(=O)O)c(=O)c2ccc(N3CCCC3)nc21 [Compound A, 1-Ethyl-1,4-dihydro-4-oxo-7-(1-pyrrolidinyl)-1,8-naphthyridine-3-carboxylicacid] | 12.5 (≈ 43.5 µM) | > 200 | 3.13 (≈ 10.9 µM) | 6.25 (≈ 21.8 µM) | > 200 | 6.25 (≈ 21.8 µM) | – | > 200 | – | 6.25 (≈ 21.8 µM) | > 200 | > 200 | – | 50 (≈ 174 µM) | > 200 | – | 50 (≈ 174 µM) | > 200 | > 200 | > 200 | MIC [5, 24]: > 200 µg/mL; MIC ([10]; ENTERITIDIS): 6.25 µg/mL (≈ 21.8 µM); MIC [11, 43]: 3.13 µg/mL (≈ 10.9 µM); MIC [12, 44]: 3.13 µg/mL (≈ 10.9 µM); MIC [13, 45]: 25 µg/mL (≈ 87 µM); MIC [16, 46]: > 200 µg/mL
4 | CCn1cc(C(=O)O)c(=O)c2cc(Cl)c(N3CCCC3)nc21 [Compound B, 6-Chloro-1-ethyl-1,4-dihydro-4-oxo-7-(1-pyrrolidinyl)-1,8-naphthyridine-3-carboxylic acid] | – | – | 50 (≈ 155 µM) | – | > 200 | > 100 | – | 50 (≈ 155 µM) | – | – | – | – | 50 (≈ 155 µM) | 50 (≈ 155 µM) | > 100 | 25 (≈ 77.7 µM) | 50 (≈ 155 µM) | 50 (≈ 155 µM) | > 100 | > 100 | MIC [1, 32]: 12.5 µg/mL (≈ 38.8 µM); MIC [2, 47]: > 100 µg/mL; MIC [7, 35]: 6.25 µg/mL (≈ 19.4 µM); MIC [11, 43]: 3.13 µg/mL (≈ 9.73 µM); MIC [12, 44]: 6.25 µg/mL (≈ 19.4 µM); MIC [13, 45]: 50 µg/mL (≈ 155 µM); MIC [14, 38]: 6.25 µg/mL (≈ 19.4 µM); MIC [15, 48]: 50 µg/mL (≈ 155 µM); MIC [16, 46]: > 100 µg/mL; MIC [18, 49]: > 100 µg/mL
5 | CCn1cc(C(=O)O)c(=O)c2cnc(N3CCCC3)nc21 [Compound E, 8-Ethyl-5,8-dihydro-5-oxo-2-(1-pyrrolidinyl)pyrido[2,3-d]pyrimidine-6-carboxylic acid] | 12.5 (≈ 43.4 µM) | – | – | 12.5 (≈ 43.4 µM) | > 200 | 12.5 (≈ 43.4 µM) | 12.5 (≈ 43.4 µM) | 12.5 (≈ 43.4 µM) | 12.5 (≈ 43.4 µM) | 12.5 (≈ 43.4 µM) | – | – | 25 (≈ 86.7 µM) | – | 50 (≈ 173 µM) | 25 (≈ 86.7 µM) | 25 (≈ 86.7 µM) | 25 (≈ 86.7 µM) | 25 (≈ 86.7 µM) | 25 (≈ 86.7 µM) | MIC [2, 47]: 100 µg/mL (≈ 347 µM); MIC (Escherichia coli P-140a; Escherichia coli): 12.5 µg/mL (≈ 43.4 µM); MIC (Escherichia coli P-5101 [6]; [26]): 12.5 µg/mL (≈ 43.4 µM); MIC [13, 45]: 25 µg/mL (≈ 86.7 µM); MIC [15, 48]: 200 µg/mL (≈ 694 µM); MIC [16, 46]: 50 µg/mL (≈ 173 µM); MIC [18, 49]: 100 µg/mL (≈ 347 µM)
